Source: US20240033263A1, “COMBINATION OF ALDOSE REDUCTASE INHIBITORS AND PROBENECID FOR THE TREATMENT OF DIABETIC COMPLICATIONS” (priority 2021, published 2024)
Where two headings read alike, the source gives them in different places.

Tests used:
[1] = design: species or system humans; settings: in vivo
Description: AT-001 is in clinical development by Applied Therapeutics for treatment of diabetic cardiomyopathy (American Heart Association 2019 Abstract Mo-2278). […] So, AT-001 would be between approximately 7-12 times shorter lived in human plasma compared to the reported human plasma half-life of zopolrestat (vide infra).

[2] = humans, oral, SAD and MAD studies; cited from earlier work
[3] = humans; cited from earlier work
[4] = ARI i.v. with probenecid i.p., Sprague-Dawley rats; cited from earlier work
[5] = target: T1, transient receptor potential vanilloid 2 (TRPV2) channel (Homo sapiens, UniProt Q9Y5S1); settings: cited from earlier work
T1 sequence (Q9Y5S1 1-764): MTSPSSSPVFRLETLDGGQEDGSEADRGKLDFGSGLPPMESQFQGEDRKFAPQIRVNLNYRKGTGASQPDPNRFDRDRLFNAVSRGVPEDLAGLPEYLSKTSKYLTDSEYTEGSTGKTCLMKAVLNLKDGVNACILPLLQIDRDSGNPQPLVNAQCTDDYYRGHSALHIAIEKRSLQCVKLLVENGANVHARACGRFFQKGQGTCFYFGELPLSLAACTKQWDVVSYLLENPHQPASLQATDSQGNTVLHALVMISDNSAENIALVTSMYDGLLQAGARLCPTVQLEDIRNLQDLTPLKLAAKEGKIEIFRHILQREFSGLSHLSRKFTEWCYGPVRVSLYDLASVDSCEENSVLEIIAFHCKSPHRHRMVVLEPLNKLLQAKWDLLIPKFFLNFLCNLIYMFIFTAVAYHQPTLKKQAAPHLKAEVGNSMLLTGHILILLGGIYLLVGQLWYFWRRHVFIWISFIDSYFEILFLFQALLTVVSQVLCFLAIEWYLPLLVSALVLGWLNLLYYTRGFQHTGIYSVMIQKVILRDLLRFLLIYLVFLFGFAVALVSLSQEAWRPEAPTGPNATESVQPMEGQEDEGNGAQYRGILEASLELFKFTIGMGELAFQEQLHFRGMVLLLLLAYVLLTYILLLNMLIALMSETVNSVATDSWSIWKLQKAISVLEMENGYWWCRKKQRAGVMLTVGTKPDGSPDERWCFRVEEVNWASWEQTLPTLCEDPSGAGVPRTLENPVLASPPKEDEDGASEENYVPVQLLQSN

TRPV2 = target: T2, TRPV2 (Mus musculus, UniProt Q9WTR1); settings: cited from earlier work
T2 construct: TRPV2 is expressed in the murine heart; host or cells: murine heart (in vitro and in vivo)
T2 sequence (Q9WTR1 1-756): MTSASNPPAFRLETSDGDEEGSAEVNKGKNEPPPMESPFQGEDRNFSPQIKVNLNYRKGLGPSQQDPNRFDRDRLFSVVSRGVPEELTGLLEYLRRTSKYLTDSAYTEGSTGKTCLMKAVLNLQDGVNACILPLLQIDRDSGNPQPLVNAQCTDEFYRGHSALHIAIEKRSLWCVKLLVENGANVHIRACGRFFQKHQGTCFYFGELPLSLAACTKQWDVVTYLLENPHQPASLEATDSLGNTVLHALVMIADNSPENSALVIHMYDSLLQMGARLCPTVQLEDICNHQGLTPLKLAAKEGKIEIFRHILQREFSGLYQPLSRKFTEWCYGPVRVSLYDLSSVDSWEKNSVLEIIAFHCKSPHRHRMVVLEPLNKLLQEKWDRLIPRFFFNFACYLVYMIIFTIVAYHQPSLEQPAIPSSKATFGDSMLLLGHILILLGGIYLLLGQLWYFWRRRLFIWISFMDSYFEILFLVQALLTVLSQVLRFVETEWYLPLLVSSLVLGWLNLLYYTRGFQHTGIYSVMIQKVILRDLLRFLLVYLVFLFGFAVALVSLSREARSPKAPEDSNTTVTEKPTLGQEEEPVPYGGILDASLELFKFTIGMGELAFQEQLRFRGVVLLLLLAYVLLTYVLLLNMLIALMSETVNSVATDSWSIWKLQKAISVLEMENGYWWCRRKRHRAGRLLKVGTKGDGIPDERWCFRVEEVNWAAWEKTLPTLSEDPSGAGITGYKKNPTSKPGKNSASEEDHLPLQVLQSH

[6] = animal model, cited from earlier work
[7] = non-diabetic patients with heart failure with reduced ejection fraction; cited from earlier work
[8] = mouse model of peripartum cardiomyopathy; cited from earlier work
[9] = water; cited from earlier work
[10] = cited from earlier work
[11] = humans, oral route; cited from earlier work

**Q.** Which results are given for `O=C(O)Cc1nn(Cc2nc3cc(C(F)(F)F)ccc3s2)c(=O)c2nccnc12` [AT-001]?
**A.** times shorter lived in human plasma compared to zopolrestat [1]: 7-12 times; median time of maximum concentration (Tmax) [2]: 1.75 to 3.38 h; plasma half-life [2]: 1.74 to 3.38 h

**Q.** Which plasma half-life [3] does the source give for `CC(/C=C1\SC(=S)N(CC(=O)O)C1=O)=C\c1ccccc1` [Epalrestat] here?
**A.** Its plasma half-life is “relatively short”.

**Q.** For `O=C(O)CNS(=O)(=O)c1ccc(NC(=O)c2ccccc2)cc1` [N-[4-(benzoylaminophenyl)sulfonyl]glycine], which “plasma profiles and pharmacokinetic parameters (AUC, clearance, mean residence time, volume of distribution)” value [4] is on record?
**A.** Its value is “did not alter”.

**Q.** For `CCCN(CCC)S(=O)(=O)c1ccc(C(=O)O)cc1` [probenecid, 4-(dipropylsulfamoyl)benzoic acid], which “agonism of TRPV2 channel” value [5] is on record?
**A.** Its value is “potent agonist”.

**Q.** What about the inotropic response (TRPV2; both in vitro and in vivo) of the same molecule?
**A.** The inotropic response was “positive inotropic response”.

**Q.** What about the “cytosolic calcium (Ca2+) concentration” value (TRPV2; murine heart, TRPV2 activated with probenecid) of the same molecule?
**A.** The value was “increases”.

**Q.** And the “apoptotic or arrhythmic pathways” value [6]?
**A.** The value was “does not elicit”.

**Q.** What about the myocardial contractility ([6]; via increased calcium cycling on a beat-to-beat basis) of the same molecule?
**A.** Its myocardial contractility is “increases”.

**Q.** And the cardiac function [7]?
**A.** Its cardiac function is “improve cardiac function”.

**Q.** What about the outcomes [8] of the same molecule?
**A.** The outcomes was “improves outcomes”.

**Q.** With `CCCN(CCC)S(=O)(=O)c1ccc(C(=O)[O-])cc1.[Na+]` [sodium salt of probenecid] as the molecule, how does the solubility [9] read?
**A.** Its solubility is 77 mg/mL.

**Q.** With `O=C(O)Cc1nn(Cc2nc3cc(C(F)(F)F)ccc3s2)c(=O)c2ccccc12` [zopolrestat] as the molecule, how does the “resting diastolic filling rates” value ([10]; after 1 year of treatment, either group) read?
**A.** The value was “no change”.

**Q.** And the “exercise LVEF” value ([10]; after 1 year of zopolrestat treatment, P 0.001)?
**A.** Its value is “increases”.

**Q.** And the “left ventricular stroke volume” value ([10]; after 1 year of zopolrestat treatment, P 0.004)?
**A.** Its value is “increases”.

**Q.** And the “resting left ventricular ejection fraction (LVEF)” value ([10]; after 1 year of zopolrestat treatment, P 0.02)?
**A.** The value was “increases”.

**Q.** What about the cardiac output ([10]; after 1 year of zopolrestat treatment, P 0.03) of the same molecule?
**A.** Its cardiac output is “increases”.

**Q.** What about the plasma half-life [11] of the same molecule?
**A.** The plasma half-life was 27.5 h.
